Source: US20250213703A1, “HUMAN INTERLEUKIN 2-POLYETHYLENE GLYCOL CONJUGATE AND USE THEREOF” (Novocodex Biopharmaceuticals Co., Ltd., priority 2021, published 2025)

What was measured:
[1] = test system: YT cells; experiment: STAT5 phosphorylation assay (YT cells); format: cell-based, human; settings: [EC50 YT/EC50 CTLL-2 of sample]/[EC50 YT/EC50 CTLL-2 of reference] × 100%
Text: In this method, two cell lines were adopted, wherein mouse CTLL-2 cells were a cell line containing IL-2Rαβγ, and human YT cells were a cell line containing IL-2Rβγ, and rhIL-2 activated the JAK-STAT signal pathway by binding with IL-2R on the cell surface. […] The lower the percentage change of EC50 ratio of YT cells/CTLL-2 cells was, the better the effect of promoting the immune function of the samples was, and on the contrary, the better the effect of inhibiting the immune function was.
The specific process was as follows: the mouse CTLL-2 cells (purchased from American Type Culture Collection) and the human YT cells were cultured in their own media (CTLL-2 cell medium: RPMI 1640+10% FBS+400 IU/mL rhIL-2, 2 mM L-glutamine and 1 mM sodium pyruvate; and YT cell medium: RPMI 1640+10% FBS+1 mm Non-Essential Amino Acids Solution (purchased from Gibco, product catalog number 11140050)) to a sufficient amount at condition of 37° C. and 5% carbon dioxide, and starved for 4 hours before detection, and then the cell density was adjusted to be 1×10^6 cells/mL for later use.

[2] = test system: mouse liver cancer H22; experiment: Anti-tumor activity, H22 homograft tumor model; format: in vivo; settings: Balb/c mice
Procedure: (§1) A cell suspension of 2×10^5/0.1 mL/mouse CT26.WT (purchased from […], product catalog number CRL-2638) and a cell suspension of 4×10^5/0.1 mL/mouse H22 (purchased from CCTCC, product catalog number GD00091) were subcutaneously inoculated into right backs of the mice. […] During the experiment, weights and tumor volumes of the animals were measured 3 times every week, and administration modes and experimental results were shown in Table 4.

[3] = test system: CD8^+ T cells and CD4^+ Treg cells; experiment: Immune cell population in CT26.WT tumor tissue (flow cytometry); format: in vivo, mouse; settings: for CD8^+ T cells/CD4^+ Treg / Percentage of CD4^+ Treg in leucocytes / Percentage of CD8^+ T cells in leucocytes: 5th day, 2.0 mg/kg IV single dosage; for proportions of CD4^+ Treg cells compared with Quanqi rhIL2 / proportions of CD8^+ T cells compared with Quanqi rhIL2 / proportions of CD8^+ T/CD4^+ Treg compared with Quanqi rhIL2: in words
Procedure: A cell suspension of 2×10^5/0.1 mL/mouse CT26.WT was subcutaneously inoculated into right backs of the mice. […] On the 5th day, tumor tissue samples of various groups were collected for flow cytometry detection of changes in cell populations of CD8^+ T cells and CD4^+ Treg cells.

[4] = test system: mouse colon cancer CT26.WT; experiment: Anti-tumor activity, CT26.WT homograft tumor model; format: in vivo; settings: Balb/c mice
Procedure: as §1

[5] = mouse, in vivo, iv, 1 mg/kg
Procedure: The blood sample was placed at room temperature for 15 minutes and centrifuged at 6,800 g/min for 6 minutes to obtain serum. The plasma concentration in the serum was analyzed by the following method:
(1) Coating: 50 μL of 1 μg/mL working solution of Anti-IL-2 antibody (purchased from abcam, product catalog number: ab9618) was added into each well in a high-adsorption 96-well plate, and incubated at 2° C. to 8° C. overnight. (2) Washing: the liquid in the well was discarded, and the well was washed with 1 xPBST (0.05% Tween-20) for 3 times, according to 300 μL/well. (3) Sealing: a casein sealing solution (purchased from Thermo, product catalog number 37528) was added according to 200 μL/well, and allowed to stand at room temperature for 90 minutes. (4) Washing: the liquid in the well was discarded, and the well was washed with 1 xPBST for 3 times, according to 300 μL/well. […] (6) Washing: the liquid in the well was discarded, and the well was washed with 1×PBST for 3 times, according to 300 μL/well. (7) Primary antibody: 50 μL of 0.25 μg/mL working solution of IL-2 Monoclonal Antibody (BG5) and Biotin (purchased from Invitrogen, product catalog number M600B) was added into each well, and allowed to stand at room temperature for 60 minutes. (8) Washing: the liquid in the well was discarded, and the well was washed with 1×PBST for 3 times, according to 300 μL/well. (9) Secondary antibody: Pierce™ High Sensitivity Streptavidin-HRP (purchased from Thermo, product catalog number 21130) was diluted for 4,000 times with a casein sealing solution, and 50 μL was added into each well, and allowed to stand at room temperature for 60 minutes. (10) Washing: the liquid in the well was discarded, and the well was washed with 1×PBST for 4 times, according to 300 μL/well. […] (12) Stopping and reading: 2 M sulfuric acid stop solution was added 25 minutes later, and light absorption values at 450 nm and 650 nm were read on a microplate reader (purchased from Perkin Elmer, model EnSight).

[6] = molecular target: T1, IL-2Rαβγ (Homo sapiens, UniProt P01589+P14784+P31785); settings: high-affinity complex IL-2Rαβγ; cited from earlier work
T1 sequence (P01589 22-272): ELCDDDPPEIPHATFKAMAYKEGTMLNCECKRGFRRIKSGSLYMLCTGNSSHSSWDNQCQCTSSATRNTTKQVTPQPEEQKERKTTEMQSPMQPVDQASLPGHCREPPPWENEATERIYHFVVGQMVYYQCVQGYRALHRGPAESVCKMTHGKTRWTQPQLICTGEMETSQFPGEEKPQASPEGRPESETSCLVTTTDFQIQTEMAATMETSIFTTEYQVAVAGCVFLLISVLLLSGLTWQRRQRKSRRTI
T1 sequence (P14784 27-551): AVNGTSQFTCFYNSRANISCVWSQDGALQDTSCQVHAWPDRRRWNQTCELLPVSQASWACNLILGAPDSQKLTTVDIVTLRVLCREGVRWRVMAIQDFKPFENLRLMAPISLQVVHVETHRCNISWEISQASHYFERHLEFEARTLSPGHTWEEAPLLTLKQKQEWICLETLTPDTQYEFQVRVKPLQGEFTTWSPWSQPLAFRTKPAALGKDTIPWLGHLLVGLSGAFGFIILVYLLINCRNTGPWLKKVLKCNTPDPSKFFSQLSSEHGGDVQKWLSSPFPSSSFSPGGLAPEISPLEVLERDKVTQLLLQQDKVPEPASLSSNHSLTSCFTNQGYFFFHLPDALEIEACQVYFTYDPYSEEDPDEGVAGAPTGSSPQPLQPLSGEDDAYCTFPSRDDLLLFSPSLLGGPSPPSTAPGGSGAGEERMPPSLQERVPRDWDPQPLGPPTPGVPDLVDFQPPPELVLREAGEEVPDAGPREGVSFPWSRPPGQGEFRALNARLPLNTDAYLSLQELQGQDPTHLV
T1 sequence (P31785 23-369): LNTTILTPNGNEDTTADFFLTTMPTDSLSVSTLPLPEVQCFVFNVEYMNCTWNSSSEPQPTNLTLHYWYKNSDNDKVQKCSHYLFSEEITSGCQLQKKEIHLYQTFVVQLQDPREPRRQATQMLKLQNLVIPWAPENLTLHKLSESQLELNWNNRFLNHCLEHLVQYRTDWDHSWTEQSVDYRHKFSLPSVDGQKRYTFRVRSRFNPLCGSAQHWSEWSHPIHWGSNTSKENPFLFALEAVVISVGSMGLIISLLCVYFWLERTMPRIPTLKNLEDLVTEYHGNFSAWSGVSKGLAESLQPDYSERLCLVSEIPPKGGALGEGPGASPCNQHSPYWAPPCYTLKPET

[7] = molecular target: T2, IL-2Rβγ (Homo sapiens, UniProt P14784+P31785); settings: moderate-affinity complex IL-2Rβγ; cited from earlier work
T2 sequence (P14784 27-551): T1 sequence (P14784 27-551)
T2 sequence (P31785 23-369): T1 sequence (P31785 23-369)

[8] = molecular target: T3, IL-2Rα (Homo sapiens, UniProt P01589); settings: low-affinity receptor IL-2Rα subunit; cited from earlier work
T3 sequence (P01589 22-272): T1 sequence (P01589 22-272)

[9] = molecular target: IL-2Rαβγ on mouse CTLL-2 cells (mouse (CTLL-2 cells)) (UniProt P01590); experiment: cell-based or functional assay
Sequence of IL-2Rαβγ on mouse CTLL-2 cells (mouse (CTLL-2 cells)) (P01590 22-268, chain 1 of 3): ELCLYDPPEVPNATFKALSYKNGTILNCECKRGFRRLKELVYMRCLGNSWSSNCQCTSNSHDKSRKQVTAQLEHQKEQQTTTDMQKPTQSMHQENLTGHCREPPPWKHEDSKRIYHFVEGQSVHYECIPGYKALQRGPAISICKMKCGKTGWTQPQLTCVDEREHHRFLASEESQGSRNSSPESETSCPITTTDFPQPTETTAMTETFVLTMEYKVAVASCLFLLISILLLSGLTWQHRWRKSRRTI
Sequence of IL-2Rαβγ on mouse CTLL-2 cells (mouse (CTLL-2 cells)) (P16297 27-539, chain 2 of 3, further chain): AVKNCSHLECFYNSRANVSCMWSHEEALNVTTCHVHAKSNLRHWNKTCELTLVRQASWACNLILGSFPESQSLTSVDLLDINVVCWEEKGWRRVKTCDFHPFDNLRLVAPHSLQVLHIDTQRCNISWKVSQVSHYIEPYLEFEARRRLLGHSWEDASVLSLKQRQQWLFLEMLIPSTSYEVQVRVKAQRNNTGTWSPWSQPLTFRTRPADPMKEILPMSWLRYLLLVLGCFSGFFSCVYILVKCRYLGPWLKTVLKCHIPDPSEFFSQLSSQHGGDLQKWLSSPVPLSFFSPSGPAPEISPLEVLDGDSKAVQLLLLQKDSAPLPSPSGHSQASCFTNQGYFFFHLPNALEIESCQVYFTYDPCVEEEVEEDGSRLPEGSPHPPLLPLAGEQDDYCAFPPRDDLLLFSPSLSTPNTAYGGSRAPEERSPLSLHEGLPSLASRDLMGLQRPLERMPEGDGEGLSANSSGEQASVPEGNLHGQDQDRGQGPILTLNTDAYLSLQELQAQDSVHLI
Sequence of IL-2Rαβγ on mouse CTLL-2 cells (mouse (CTLL-2 cells)) (P34902 23-369, chain 3 of 3, further chain): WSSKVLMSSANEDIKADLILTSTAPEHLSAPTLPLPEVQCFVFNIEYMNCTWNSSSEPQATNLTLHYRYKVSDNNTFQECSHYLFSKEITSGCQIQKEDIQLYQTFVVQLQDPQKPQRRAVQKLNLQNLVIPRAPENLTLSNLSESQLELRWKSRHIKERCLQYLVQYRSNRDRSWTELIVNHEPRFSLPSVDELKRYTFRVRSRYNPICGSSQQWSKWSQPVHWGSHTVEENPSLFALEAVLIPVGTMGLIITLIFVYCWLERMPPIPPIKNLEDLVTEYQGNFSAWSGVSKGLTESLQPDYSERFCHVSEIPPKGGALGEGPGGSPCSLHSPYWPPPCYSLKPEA

[10] = high dosage 5.0 mg/kg IV Q5D × 3
[11] = low dosage 0.7 mg/kg IV Q5D × 3

In the case of “30 KD PEG-rhIL2-E61: rhIL-2 with unnatural amino acid NOPK at E61 site, coupled via oxime bond with 30 KD aminoxy PEG”, the “Percentage change of EC50 ratio of YT/CTLL-2 cells of 30 KD PEG-rhIL2 sample” value [1] is reported as 89%.
With “30 KD PEG-rhIL2-Y45: rhIL-2 with unnatural amino acid NOPK at Y45 site, coupled via oxime bond with 30 KD aminoxy PEG” the “Average value ± standard error of tumor weight” value (shortened to “Average value ± standard error”) [2, 10] was 0.4 g, the TGITW [2, 10] was 79% and the “Average value ± standard error” value [2, 11] was 0.82 g. For the same substance, the TGITW [2, 11] was 57%, the “CD8^+ T cells/CD4^+ Treg” value [3] was 23.2 and the “Percentage of CD4^+ Treg in leucocytes” value [3] was 1.3%. For the same substance, the “Percentage of CD8^+ T cells in leucocytes” value [3] was 30.1%, the “proportions of CD4^+ Treg cells compared with Quanqi rhIL2” value [3] was “significantly decreased” and the “proportions of CD8^+ T cells compared with Quanqi rhIL2” value [3] was “significantly increased”. For the same substance, the “proportions of CD8^+ T/CD4^+ Treg compared with Quanqi rhIL2” value [3] was “significantly increased”, the “Average value ± standard error” value [4, 10] was 0.22 g and the TGITW [4, 10] was 92%. The “Average value ± standard error” value [4, 11] was 0.93 g, the TGITW [4, 11] was 66% and the “Percentage change of EC50 ratio of YT/CTLL-2 cells of 30 KD PEG-rhIL2 sample” value [1] was 6%. For the same substance, the AUC0-t [5] was 168.141 µg·h/mL, the MRT0-t [5] was 9.42 h and the Vz [5] was 0.126 L/kg.
For “IL-2: mature human IL-2 with 133 amino acids, background description”, the Kd [6] is listed as 0.01 nM, the Kd [7] is listed as 1 nM and the Kd [8] is listed as 10 nM.
In the case of “30 KD PEG-rhIL2-P65: rhIL-2 with unnatural amino acid NOPK at P65 site, coupled via oxime bond with 30 KD aminoxy PEG”, the “Percentage change of EC50 ratio of YT/CTLL-2 cells of 30 KD PEG-rhIL2 sample” value [1] is reported as 91%.
In the case of “30 KD PEG-rhIL2-K35: rhIL-2 with unnatural amino acid NOPK at K35 site, coupled via oxime bond with 30 KD aminoxy PEG”, the “Percentage change of EC50 ratio of YT/CTLL-2 cells of 30 KD PEG-rhIL2 sample” value [1] is reported as 53%.
“reference rhIL-2 (purchased from Beijing Solarbio Science & Technology Co., Ltd., catalog number: P00020) (from UniProt P60568 21-153) (ligand)” gave an STAT5 phosphorylation assay (CTLL-2 cells) EC50 [9] of 0.12 ng/mL.
In the case of “30 KD PEG-rhIL2-T41: rhIL-2 with unnatural amino acid NOPK at T41 site, coupled via oxime bond with 30 KD aminoxy PEG”, the “Average value ± standard error” value [2, 10] is reported as 0.38 g, the TGITW [2, 10] is reported as 80% and the “Average value ± standard error” value [2, 11] is reported as 0.69 g. The TGITW [2, 11] was 63%, the “CD8^+ T cells/CD4^+ Treg” value [3] was 27.7 and the “Percentage of CD4^+ Treg in leucocytes” value [3] was 1.3%. For the same substance, the “Percentage of CD8^+ T cells in leucocytes” value [3] was 36.0%, the “proportions of CD4^+ Treg cells compared with Quanqi rhIL2” value [3] was “significantly decreased” and the “proportions of CD8^+ T cells compared with Quanqi rhIL2” value [3] was “significantly increased”. For the same substance, the “proportions of CD8^+ T/CD4^+ Treg compared with Quanqi rhIL2” value [3] was “significantly increased”, the “Average value ± standard error” value [4, 10] was 0.32 g and the TGITW [4, 10] was 88%. The “Average value ± standard error” value [4, 11] was 0.64 g, the TGITW [4, 11] was 77% and the “Percentage change of EC50 ratio of YT/CTLL-2 cells of 30 KD PEG-rhIL2 sample” value [1] was 43%.
